Measured values published in patent publication US20110033430A1, “METHODS FOR THE INDUCTION OF A CELL TO ENTER THE ISLET 1+ LINEAGE AND A METHOD FOR THE EXPANSION THEREOF” (THE GENERAL HOSPITAL CORPORATION, priority 2007, published 2011).
“Also recorded” adds a separate entry of the source.

Experiments:
[1] = tested on: postnatal isl1+ cardiovascular progenitors; test: Expansion of postnatal isl1+ cardiovascular progenitors, isl1 immunostaining; assay type: cell-based, mouse; set-up: increase of number of isl1+ progenitors versus control: dose or concentration left out as unconfirmed; details: for number of isl1+ progenitors: isl1 immunostaining, versus control
Method: Immunohistochemical Analyses and lacZ Staining. Cells in culture or paraffin embedded sections were fixed with 4% paraformaldehyde and subjected to immunostaining. For mouse embryo cryosections, they were saturated with 20% sucrose followed by section and 2% PFA fix for 10 min at room temperature. The following primary antibodies were used in this study: isl1 (mouse monoclonal antibody, clone 39.4D5, clone 2D6 (Developmental Studies Hybridoma Bank, 1:100), cardiac troponin T (mouse monoclonal antibody, NeoMarkers, 1:200), smooth muscle myosin heavy chain (rabbit polyclonal, Biomedical Technologies Inc., 1:100), smooth muscle actin (mouse monoclonal, clone 1A4, Dako, 1:100; rabbit polyclonal, Abcam), phosphohistone H3 (rabbit polyclonal, Upstate). Alexa Fluor 488- or Alexa Fluor 594-conjugated secondary antibodies specific to the appropriate species were used (Molecular Probes, 1:350). 3D reconstruction was done using Winsuf from Surfdriver Software. For immunoperoxidase staining, the VECTASTAIN ABC® system (VECTOR Laboratories) was used, accordingly to the vendors' instructions. 5 μm frozen sections and cultured cells were fixed with 0.2% and 0.05% glutaraldehyde respectively for 10 min at 4° C. followed by 3 times wash with PBS. LacZ stainings were then performed on these samples by incubating with X-Gal solution containing 40 mM HEPES, pH 7.4, 5 mM K3(Fe(CN)6), 5 mM K4(Fe(CN)6), 2 mM MgCl2, 15 mM NaCl, and 1 mg/ml X-Gal. For LacZ staining on EB-derived clones expanded on CMC, 0.02% NP-40 was added to the X-Gal solution for better permeabilization. When combining LacZ staining with immunoperoxidase analyses, samples were processed first for LacZ staining at room temperature over night, followed by a re-fixation with 4% paraformaldehyde prior to the immunoperoxidase stainings for specific epitopes or by re-fixation with 2% gluteraldehyde to perform EM studies.
Statistic Analysis. Data were analyzed with two-tailed Student's t test and the results reported are statistically significant with p value <0.05. Standard error of the mean (SEM) is given for each mean value. For immunofluorescent analyses for postnatal isl1^+ cardiovascular progenitors, the cells within the whole well in an 8-well chamber slide were examined for Isl1 expression to obtain better statistic comparison.
Although there was only a small increase over the control, the effect of these compounds was highly reproducible and statistically significant (p<0.05, 0.01, or 0.001, FIG. 2C). […] Two of these compounds were unknown (compound A and compound B), and the third was 6-bromoindirubin-3′-oxime (BIO), previously shown to be an inhibitor of GSK-3 (Meijer et al., 2003). BIO has been recently shown to promote self-renewal of both human and mouse ES cells through activation of the wnt/β-catenin pathway in combination with other signaling inputs (Sato et al., 2004). The inventors explored the role of BIO on the renewal of isl1^+ progenitors.
Wnt/β-Catenin Pathway Plays a Pivotal Role in the Control of Isl1+ Progenitor Expansion. […] The inventors examined whether Wnt3a, a well-established ligand in the Wnt/β-catenin pathway (Logan and Nusse, 2004), was able to expand postnatal isl1^+ progenitors.

[2] = tested on: postnatal isl1+ progenitors in cardiac mesenchymal cells (CMC); test: High-throughput chemical screening: β-gal activity quantified by luminescence (Beto-Glo); assay type: cell-based, mouse; details: CMC with isl1+ progenitors, 4 days treatment, versus DMSO control
Method: Progenitors and High-Throughput Chemical Screening. […] Briefly, 30-40 hearts from 1-5 day-old isl1-mER-Cre-mER/R26R pups were used to prepare CMC, containing isl1+ progenitors marked by β-galactosidase. 4-OH-TM (Sigma), active form of tamoxifen, was added to the culture 1 day after plating at 1 μm. These were expanded for 7 days, trypsinized, and seeded at a density of 3,000 cells per well in 384-well plates.
Isolation of Murine Postnatal Cardiac Progenitors and High-throughput Chemical Screening. […] Briefly, 30-40 hearts from 1-5 day-old is1-mER-Cre-mER/R26R pups were used to prepare CMC, containing isl1^+ progenitors marked by β-galactosidase. 4-OH-TM (Sigma), active form of tamoxifen, was added to the culture 1 day after plating at 1 μm. These were expanded for 7 days, then trypsinized, and seeded at a density of 3,000 cells per well in a 384-well plate.
To find cardiac mesenchymal cells (CMC)-derived environmental cues involved in the renewal of isl1+ progenitors, the inventors developed a high-throughput chemical screening system, based on the coculture of CMC with postnatal isl1+ progenitors (FIG. 2A). […] The inventors used this library to screen for small molecules that would expand the rare population of postnatal isl1+ progenitors.

CMC = test: Cleaved caspase-3 immunostaining (apoptosis); assay type: cell-based, mouse; details: treated CMC
Excerpt: To further validate the specificity of BIO function, the inventors tested two other ATP-competitive GSK-3-specific inhibitors: an acetoxime analog of BIO and 1-Azakenpaullone (Kunick et al., 2004; Meijer et al., 2003). […] Taken together, the inventors have discovered that BIO promotes the expansion of isl1+ progenitors by inhibiting GSK-3 activity.

[3] = tested on: human neonatal isl1+ progenitors; test: Expansion of human neonatal isl1+ progenitors, isl1 immunostaining; assay type: cell-based; details: human neonatal CMC, 4 days
Method: Isolation and Cell Culture Conditions of Human Postnatal Cardiac Progenitors. Biopsies are cut in small pieces and washed in solution A (10 mM Hepes, 35 mM NaCl, 10 mM glucose, 134 mM sucrose, 16 mM Na2HPO4, 25 mM NaHCO3, 7.75 mM KCl, 1.18 mM KH2PO4, pH 7.4), supplemented with 30 mM 2,3 butanedione 2-monoxime and 0.5 mM EGTA. First digestion step is performed in solution A supplemented with 0.5% BSA, 200 UI/ml of collagenase type II (Worthington) and 6 UI/ml protease type XXIV (Sigma) for 20 min at 37° C. to remove red blood cells and cell debris. Four digestion steps are performed in solution A supplemented with 400 UI/ml collagenase type V for 20 min at 37° C. and centrifuged at 30×g for 1 min. The supernatant is neutralized from the collagenase by adding ⅕ of NCS (newborn calf serum) and are centrifuged at 1300 rpm for 3-5 min. Pellet is resuspended in DMEM supplemented with 10% NCS, 5% FBS and Pen-Strep, and cells are seeded on chamber slide. BIO was added to the culture at different doses in complete progenitor medium and cultured for 4 days prior to immunostaining for Isl1.
In order to test whether BIO was capable of expanding human neonatal isl1^+ progenitors, human neonatal CMC were isolated from the biopsies of patients with congenital heart defects into single cells and cultured for 4 days in the presence or absence of BIO.

[4] = tested on: anterior heart field isl1+ progenitors (AHF-GFP ES cells); test: Expansion of ES cell-derived anterior heart field GFP+/isl1+ cells on CMC feeder, FACS; assay type: cell-based, mouse; details: 7 days on CMC feeder, versus control
Method: Differentiation was induced by forming embryoid bodies (EB's) in hanging drops of 600 cells in 15 μL of media without LIF. On day 6, the EB's were trypsinized into single cell suspension and sorted on the basis of GFP expression using flow cytometry. GFP positive cells were plated on a neonatal cardiac mesenchymal feeder layer for 7 days with one of four conditions: DMSO, BIO, and conditioned media from either control cells (L-Cells) or cells overexpressing wnt3A. After 7 days of expansion on the cardiac mesenchymal feeder layer, the cells were trypsinized and FACS sorted. Differentiation of the GFP positive cells was triggered as follow: into myocytes, on fibronectin by using DMEM/M199 (4:1 ratio) medium containing 10% horse serum and 5% FBS; into SM cells, on fibronectin by using DMEM/F12 containing B27 supplement, 2% FBS, and 10 ng/ml EGF.
To directly determine whether Wnt ligands are secreted from the CMC to promote the renewal of isl1^+ progenitors in a paracrine manner, the inventors developed an in vitro reconstitution of the mesenchymal niche.
To further characterize the nature of the CMC-derived cues, the inventors tested the ability of Wnt3a to reproduce this effect.

other protein kinases = details: Plotkin et al., 2003; cited from earlier work
[5] = tested on: isl1-nlacZ knockin ES cell-derived precursors; test: Prespecification of mesodermal precursors toward MICPs on CMC feeder, single β-gal+ cells after 24 hr; assay type: cell-based, mouse; details: 24 hr on CMC feeder, versus control
Method: Immunohistochemical Analyses and lacZ Staining. Cells in culture or paraffin embedded sections were fixed with 4% paraformaldehyde and subjected to immunostaining. For mouse embryo cryosections, they were saturated with 20% sucrose followed by section and 2% PFA fix for 10 min at room temperature. The following primary antibodies were used in this study: isl1 (mouse monoclonal antibody, clone 39.4D5, clone 2D6 (Developmental Studies Hybridoma Bank, 1:100), cardiac troponin T (mouse monoclonal antibody, NeoMarkers, 1:200), smooth muscle myosin heavy chain (rabbit polyclonal, Biomedical Technologies Inc., 1:100), smooth muscle actin (mouse monoclonal, clone 1A4, Dako, 1:100; rabbit polyclonal, Abcam), phosphohistone H3 (rabbit polyclonal, Upstate). Alexa Fluor 488- or Alexa Fluor 594-conjugated secondary antibodies specific to the appropriate species were used (Molecular Probes, 1:350). 3D reconstruction was done using Winsuf from Surfdriver Software. […]
The wnt/β-Catenin Pathway Regulates the Prespecification, Expansion, and Differentiation of Isl1+ Cardiovascular Progenitors. […] To score the effect of the CMC feeder on the prespecification of mesodermal precursors toward MICPs, the inventors quantified the single b-gal^+ cells 24 hr after treatment with various reagents (FIG. 7A). […]

murine Wls/Evi = biological target: T1, murine Wls/Evi (Mus musculus, UniProt Q6DID7); test: Wnt reporter (superTOPFLASH) coculture with siRNA-transfected Wnt3a-producing cells, luciferase; assay type: cell-based; details: coculture with transfected Wnt3a-secreting cells, versus control
T1 construct: endogenous in cells; host or cells: Wnt3a-producing (Wnt3a-secreting) cell line (ATCC), cocultured with superTOPFLASH Wnt reporter cells
T1 sequence (Q6DID7 1-541): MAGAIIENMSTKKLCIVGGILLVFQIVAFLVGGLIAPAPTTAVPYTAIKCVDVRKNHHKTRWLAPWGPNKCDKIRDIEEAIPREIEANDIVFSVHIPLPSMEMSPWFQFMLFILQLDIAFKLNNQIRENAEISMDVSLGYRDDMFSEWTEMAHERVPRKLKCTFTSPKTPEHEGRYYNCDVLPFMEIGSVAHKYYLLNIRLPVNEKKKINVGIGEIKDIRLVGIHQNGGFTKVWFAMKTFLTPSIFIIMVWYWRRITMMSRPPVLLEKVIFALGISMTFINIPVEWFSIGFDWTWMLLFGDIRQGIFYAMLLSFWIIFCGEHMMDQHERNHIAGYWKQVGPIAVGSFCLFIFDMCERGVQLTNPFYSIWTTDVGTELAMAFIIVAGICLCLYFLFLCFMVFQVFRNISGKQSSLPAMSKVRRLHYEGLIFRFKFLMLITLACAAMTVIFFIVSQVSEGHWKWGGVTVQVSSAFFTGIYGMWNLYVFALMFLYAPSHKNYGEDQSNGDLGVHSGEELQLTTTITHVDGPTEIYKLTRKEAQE
Excerpt: Production of Reagents for Wnt Pathway. Wnt3a or control-conditioned medium was produced as following. A Wnt3a-secreting cell line (ATCC) was allowed to grow to conflency and subcultured at 1:20 ratio prior to replenish with fresh medium. Three batches of conditioned medium were harvested every 48 hrs. Dkk1-conditioned medium was produced by transiently transfecting a Dkk1-expressing cDNA (generously provided by Dr. Randall T. Moon) into the HEK293T cell line with FuGENE 6 (Roche). The supernatant was harvested 72 hrs after transfection. A Wnt-reporter cell line, superTOPFLASH, was a generous gift from Dr. Randall T. Moon.
Small hairpin RNAs (shRNAs) oligonucleotide sequences were designed based on the following target sequences: siWLS-A ([…]) (SEQ ID NO:1) and siWLS-B (GGGTTACCGTGATGATATG, (SEQ ID NO:2) and subcloned into the retro-viral vector, RNAi-Ready pSIREN-RetroQ-DsRed-Express (Clontech) according to vendor's instructions. Negative control shRNA annealed oligonucleotide was provided by the vendor and cloned to the same vector. Retro-viral siRNAi particles were produced by transiently transfect these vectors into the packaging cell line EcoPack 2-293 cells with GENE 6 (Roche). Viral supernatant was harvested 72 hrs after transfection.
The inventors confirmed this effect by blocking the secretion of Wnt ligands from the CMC. […]

## O=C1Cc2c([nH]c3ccc(Br)cc23)-c2ncccc2N1 [1-Azakenpaullone]
[1]
  number of isl1+ progenitors: substantially increased

## O=C1Nc2cc(Br)ccc2/C1=C1/Nc2ccccc2/C1=N\O [BIO, 6-bromoindirubin-3′-oxime]
[2]
  β-gal activity (luciferase activity): significantly increase
[1]
  increase of number of isl1+ progenitors versus control: 7 fold
  number of isl1+ progenitors: substantially increase; also recorded: increased the number of isl1^+ progenitors in a dose-dependent manner
[1]; BIO at 2.5 μM
  cluster formation of isl1+ progenitors, increase versus control: 11.6 fold
[1]; versus control treated samples
  formation of isl1+ clusters: promoted isl1^+ progenitors to form large clusters
CMC
  apoptosis, cleaved caspase-3 immunostaining: no appreciable apoptosis
[3]
  number of human Isl1+ progenitors: markedly increased
[4]
  expansion of GFP+/Isl1+ anterior heart field cells: marked expansion; also recorded: greater expansion

## CC(=O)O/N=C1/C(=C2/C(=O)Nc3cc(Br)ccc32)Nc2ccccc21 [acetoxime analog of BIO]
[1]
  number of isl1+ progenitors: substantially increased

## GSK-3 peptide inhibitor: cell-permeable and substrate-competitive GSK-3 peptide inhibitor (GKEAPPAPPQSP)
[1]
  number of isl1+ progenitors: significantly expand
Other protein kinases
  inhibitory effect on other protein kinases: negligible inhibitory effect

## siWLS-A: siRNA/shRNA against murine Wls/Evi, target sequence CACAAATCCTTTCTACAGTAT (the letters are possibly those of the target site)
[5]
  formation of MICPs (single β-gal+ cells): significantly increased
Murine Wls/Evi
  luciferase activity of Wnt reporter cells (Wnt3a secretion): significant reduction; also recorded: significantly decreased

## siWLS-B: siRNA/shRNA against murine Wls/Evi, target sequence GGGTTACCGTGATGATATG (the letters are possibly those of the target site)
Murine Wls/Evi
  luciferase activity of Wnt reporter cells (Wnt3a secretion): significant reduction; also recorded: significantly decreased
